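Each compound was tested at five concentrations against cells in 96-well plates for 48 hours. TGI: concentration producing complete growth inhibition.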
Legend:
Experiment in all cases: NCI-60 cell line screen, 48 h
SNB-19 CNS = test system: SNB-19 CNS
RXF 393 renal = test system: RXF 393 renal
SW-620 colon = test system: SW-620 colon
UO-31 renal = test system: UO-31 renal
M14 melanoma = test system: M14 melanoma
HCC-2998 colon = test system: HCC-2998 colon
UACC-62 melanoma = test system: UACC-62 melanoma
SF-295 CNS = test system: SF-295 CNS
DU-145 prostate = test system: DU-145 prostate
HCT-15 colon = test system: HCT-15 colon
HT29 colon = test system: HT29 colon
CCRF-CEM leukemia = test system: CCRF-CEM leukemia
KM12 colon = test system: KM12 colon
A549 NSCLC = test system: A549 NSCLC
SK-MEL-2 melanoma = test system: SK-MEL-2 melanoma
HS 578T breast = test system: HS 578T breast
NCI-H23 lung = test system: NCI-H23 lung
T-47D breast = test system: T-47D breast
SK-MEL-28 melanoma = test system: SK-MEL-28 melanoma
LOX IMVI melanoma = test system: LOX IMVI melanoma
CAKI-1 renal = test system: CAKI-1 renal
HOP-62 NSCLC = test system: HOP-62 NSCLC
EKVX NSCLC = test system: EKVX NSCLC
NCI/ADR-RES ovarian = test system: NCI/ADR-RES ovarian
SR leukemia = test system: SR leukemia
PC-3 prostate = test system: PC-3 prostate
SK-OV-3 ovarian = test system: SK-OV-3 ovarian
COLO 205 colon = test system: COLO 205 colon
SF-268 CNS = test system: SF-268 CNS
NCI-H226 lung = test system: NCI-H226 lung
OVCAR-8 ovarian = test system: OVCAR-8 ovarian
ACHN renal = test system: ACHN renal
K-562 leukemia = test system: K-562 leukemia
786-0 renal = test system: 786-0 renal
MALME-3M melanoma = test system: MALME-3M melanoma
OVCAR-3 ovarian = test system: OVCAR-3 ovarian
NCI-H522 lung = test system: NCI-H522 lung
IGROV1 ovarian = test system: IGROV1 ovarian
HL-60(TB) leukemia = test system: HL-60(TB) leukemia
HOP-92 NSCLC = test system: HOP-92 NSCLC
MDA-N = test system: MDA-N
MCF7 breast = test system: MCF7 breast
MDA-MB-435 = test system: MDA-MB-435
TK-10 renal = test system: TK-10 renal
NCI-H460 lung = test system: NCI-H460 lung
UACC-257 melanoma = test system: UACC-257 melanoma
MDA-MB-231 breast = test system: MDA-MB-231 breast
A498 renal = test system: A498 renal
SN12C renal = test system: SN12C renal
OVCAR-4 ovarian = test system: OVCAR-4 ovarian
U251 CNS = test system: U251 CNS
HCT-116 colon = test system: HCT-116 colon
SNB-75 CNS = test system: SNB-75 CNS
RPMI-8226 leukemia = test system: RPMI-8226 leukemia
MOLT-4 leukemia = test system: MOLT-4 leukemia
SK-MEL-5 melanoma = test system: SK-MEL-5 melanoma
BT-549 breast = test system: BT-549 breast
SF-539 CNS = test system: SF-539 CNS
OVCAR-5 ovarian = test system: OVCAR-5 ovarian

## C=CC1C(OC2OC(CO)C(O)C(O)C2O)OC=C(C(=O)OC)C1CC1CC(=O)CC(CCc2ccc(O)cc2)O1 (configuration not stated)
SNB-19 CNS
  TGI: > 100 µM
RXF 393 renal
  TGI: > 100 µM
SW-620 colon
  TGI: > 100 µM
UO-31 renal
  TGI: > 100 µM
M14 melanoma
  TGI: > 100 µM
HCC-2998 colon
  TGI: > 100 µM
UACC-62 melanoma
  TGI: > 100 µM
SF-295 CNS
  TGI: > 100 µM
DU-145 prostate
  TGI: > 100 µM
HCT-15 colon
  TGI: > 100 µM
HT29 colon
  TGI: > 100 µM
CCRF-CEM leukemia
  TGI: > 100 µM
KM12 colon
  TGI: > 100 µM
A549 NSCLC
  TGI: > 100 µM
SK-MEL-2 melanoma
  TGI: > 100 µM
HS 578T breast
  TGI: > 100 µM
NCI-H23 lung
  TGI: > 100 µM
T-47D breast
  TGI: > 100 µM
SK-MEL-28 melanoma
  TGI: > 100 µM
LOX IMVI melanoma
  TGI: > 100 µM
CAKI-1 renal
  TGI: > 100 µM
HOP-62 NSCLC
  TGI: > 100 µM
EKVX NSCLC
  TGI: > 100 µM
NCI/ADR-RES ovarian
  TGI: > 100 µM
SR leukemia
  TGI: > 100 µM
PC-3 prostate
  TGI: > 100 µM
SK-OV-3 ovarian
  TGI: > 100 µM
COLO 205 colon
  TGI: > 100 µM
SF-268 CNS
  TGI: > 100 µM
NCI-H226 lung
  TGI: > 100 µM
OVCAR-8 ovarian
  TGI: > 100 µM
ACHN renal
  TGI: > 100 µM
K-562 leukemia
  TGI: > 100 µM
786-0 renal
  TGI: > 100 µM
MALME-3M melanoma
  TGI: > 100 µM
OVCAR-3 ovarian
  TGI: > 100 µM
NCI-H522 lung
  TGI: > 100 µM
IGROV1 ovarian
  TGI: > 100 µM
HL-60(TB) leukemia
  TGI: > 100 µM
HOP-92 NSCLC
  TGI: > 100 µM
MDA-N
  TGI: > 100 µM
MCF7 breast
  TGI: > 100 µM
MDA-MB-435
  TGI: > 100 µM
TK-10 renal
  TGI: > 100 µM
NCI-H460 lung
  TGI: > 100 µM
UACC-257 melanoma
  TGI: > 100 µM
MDA-MB-231 breast
  TGI: > 100 µM
A498 renal
  TGI: > 100 µM
SN12C renal
  TGI: > 100 µM
OVCAR-4 ovarian
  TGI: > 100 µM
U251 CNS
  TGI: > 100 µM
HCT-116 colon
  TGI: > 100 µM
SNB-75 CNS
  TGI: > 100 µM
RPMI-8226 leukemia
  TGI: > 100 µM
MOLT-4 leukemia
  TGI: > 100 µM
SK-MEL-5 melanoma
  TGI: > 100 µM
BT-549 breast
  TGI: > 100 µM
SF-539 CNS
  TGI: > 100 µM
OVCAR-5 ovarian
  TGI: > 100 µM

## CCOP(=O)(COCCn1ncc(=O)[nH]c1=O)OCC
SNB-19 CNS
  TGI: > 100 µM
RXF 393 renal
  TGI: > 100 µM
SW-620 colon
  TGI: > 100 µM
UO-31 renal
  TGI: > 100 µM
M14 melanoma
  TGI: > 100 µM
HCC-2998 colon
  TGI: > 100 µM
DU-145 prostate
  TGI: > 100 µM
HCT-15 colon
  TGI: > 100 µM
HT29 colon
  TGI: > 100 µM
CCRF-CEM leukemia
  TGI: > 100 µM
KM12 colon
  TGI: > 100 µM
A549 NSCLC
  TGI: > 100 µM
SK-MEL-2 melanoma
  TGI: > 100 µM
HS 578T breast
  TGI: > 100 µM
NCI-H23 lung
  TGI: > 100 µM
T-47D breast
  TGI: > 100 µM
SK-MEL-28 melanoma
  TGI: > 100 µM
LOX IMVI melanoma
  TGI: > 100 µM
CAKI-1 renal
  TGI: > 100 µM
HOP-62 NSCLC
  TGI: > 100 µM
EKVX NSCLC
  TGI: > 100 µM
NCI/ADR-RES ovarian
  TGI: > 100 µM
SR leukemia
  TGI: > 100 µM
PC-3 prostate
  TGI: > 100 µM
COLO 205 colon
  TGI: > 100 µM
SF-268 CNS
  TGI: > 100 µM
NCI-H226 lung
  TGI: > 100 µM
OVCAR-8 ovarian
  TGI: > 100 µM
ACHN renal
  TGI: > 100 µM
MALME-3M melanoma
  TGI: > 100 µM
OVCAR-3 ovarian
  TGI: > 100 µM
NCI-H522 lung
  TGI: > 100 µM
IGROV1 ovarian
  TGI: > 100 µM
HL-60(TB) leukemia
  TGI: > 100 µM
HOP-92 NSCLC
  TGI: > 100 µM
MDA-N
  TGI: > 100 µM
MCF7 breast
  TGI: > 100 µM
MDA-MB-435
  TGI: > 100 µM
TK-10 renal
  TGI: > 100 µM
NCI-H460 lung
  TGI: > 100 µM
MDA-MB-231 breast
  TGI: > 100 µM
A498 renal
  TGI: > 100 µM
SN12C renal
  TGI: > 100 µM
U251 CNS
  TGI: > 100 µM
SNB-75 CNS
  TGI: > 100 µM
RPMI-8226 leukemia
  TGI: > 100 µM
MOLT-4 leukemia
  TGI: > 100 µM
SK-MEL-5 melanoma
  TGI: > 100 µM
BT-549 breast
  TGI: > 100 µM
SF-539 CNS
  TGI: > 100 µM
OVCAR-5 ovarian
  TGI: > 100 µM

## O=C(/N=C/c1c(O)c2ccccc2oc1=O)Oc1ccccc1
SNB-19 CNS
  TGI: > 100 µM
RXF 393 renal
  TGI: 31.1 µM
SW-620 colon
  TGI: > 100 µM
UO-31 renal
  TGI: 63.6 µM
M14 melanoma
  TGI: > 100 µM
HCC-2998 colon
  TGI: > 100 µM
UACC-62 melanoma
  TGI: 79.7 µM
SF-295 CNS
  TGI: > 100 µM
DU-145 prostate
  TGI: > 100 µM
HCT-15 colon
  TGI: > 100 µM
HT29 colon
  TGI: > 100 µM
CCRF-CEM leukemia
  TGI: > 100 µM
KM12 colon
  TGI: > 100 µM
A549 NSCLC
  TGI: > 100 µM
SK-MEL-2 melanoma
  TGI: 36.1 µM
HS 578T breast
  TGI: 32.1 µM
NCI-H23 lung
  TGI: 68.5 µM
T-47D breast
  TGI: 91.9 µM
LOX IMVI melanoma
  TGI: 80.9 µM
CAKI-1 renal
  TGI: 94.6 µM
HOP-62 NSCLC
  TGI: 43.6 µM
EKVX NSCLC
  TGI: > 100 µM
NCI/ADR-RES ovarian
  TGI: 95.8 µM
SR leukemia
  TGI: > 100 µM
PC-3 prostate
  TGI: > 100 µM
SK-OV-3 ovarian
  TGI: 66 µM
COLO 205 colon
  TGI: > 100 µM
NCI-H226 lung
  TGI: 44.9 µM
OVCAR-8 ovarian
  TGI: 91.9 µM
ACHN renal
  TGI: > 100 µM
K-562 leukemia
  TGI: > 100 µM
786-0 renal
  TGI: 85.7 µM
MALME-3M melanoma
  TGI: 61.7 µM
OVCAR-3 ovarian
  TGI: 44.2 µM
NCI-H522 lung
  TGI: > 100 µM
IGROV1 ovarian
  TGI: 60.7 µM
HL-60(TB) leukemia
  TGI: > 100 µM
HOP-92 NSCLC
  TGI: 79.9 µM
MDA-N
  TGI: 86.7 µM
MCF7 breast
  TGI: > 100 µM
MDA-MB-435
  TGI: 66.5 µM
TK-10 renal
  TGI: 79.6 µM
NCI-H460 lung
  TGI: > 100 µM
UACC-257 melanoma
  TGI: 92.2 µM
MDA-MB-231 breast
  TGI: 84.1 µM
A498 renal
  TGI: 46.2 µM
SN12C renal
  TGI: 51.7 µM
OVCAR-4 ovarian
  TGI: 65.8 µM
U251 CNS
  TGI: 87.5 µM
HCT-116 colon
  TGI: 71.8 µM
SNB-75 CNS
  TGI: 68.4 µM
RPMI-8226 leukemia
  TGI: > 100 µM
MOLT-4 leukemia
  TGI: 96.4 µM
SK-MEL-5 melanoma
  TGI: > 100 µM
BT-549 breast
  TGI: 81 µM
SF-539 CNS
  TGI: 42.2 µM
OVCAR-5 ovarian
  TGI: > 100 µM
